Source: US6673354B2, “Compositions and methods for treating papillomavirus-infected cells” (priority 1998, dated 2004)

Key:
[1] = tested on: in vitro HPV16 DNA replication; assay: In vitro replication of HPV16 DNA (293 cell extract, EE-E1, HPV16 E2); assay type: biochemical; details: 40 ng EE-E1 and 6 ng HPV16 E2, FIG. 7
Experimental: (§1) In vitro replication reactions. In vitro replication reactions were essentially as described by Kuo et al. (18) in 25 μl reactions at 37° C. for indicated times. Standard reactions were for 2 hours, and were terminated by addition of 200 μl stop solution (20 mM Tris-HCl pH 7.5, 10 mM EDTA, 0.1% SDS, and 20 μg/ml RNase A). After incubation at 37° C. for 15 minutes, proteinase K was added (200 μg/ml) and incubation was continued 30 minutes. Samples were extracted with 250 μl phenol/chloroform/isoamyl alcohol (25:24:1), ethanol precipitated, washed with 70% ethanol, dried, resuspended in 20-30μl TE, and analyzed on a 0.8% agarose gel (TAE). The agarose gel was dried onto Hybond N+ membrane (Amersham), and replicated DNA was visualized by autoradiography. Bands were quantitated by Phosphorimager analysis. Replication templates were pKS7838-7905 (nt7838-7905/1-130) containing the HPV16 replication origin, and pUC7874-99 containing the HPV11 origin of replication (nt7874-7933/1-99). pUC7874-99 was a generously provided by Dr. Louise Chow.
We sought to establish a system for the study of HPV16 DNA replication in vitro, and to determine whether specific interaction between HPV16 E1 and E2 was required for HPV16 DNA replication in this system. […] As has been documented for other papillomavirus E1 proteins, some replication was observed using relatively large amounts of E1 in the absence of E2 (lanes 2 through 7) (6, 16, 22, 33, 40, 48). […] Replication in this assay is ori-dependent, since the small amount of replication of the pKS plasmid lacking the HPV16 origin detected at high concentrations of EE-E1 (FIG. 3B, lanes 1-6) was not stimulated by E2 (FIG. 1B, lanes 7-12).
Since the E2N-WP23 and E2N-WP 15 peptides could inhibit interaction between […] E1 and E2, their ability to inhibit in vitro HPV16 DNA replication was also tested (FIGS. 7A and 7B).

HPV11 E1/E2 interaction = molecular target: T1, HPV11 E1/E2 interaction (Human papillomavirus 11, UniProt P04014); assay: In vitro HPV E1-E2 binding assay, HPV11 E1 and HPV11 E2
T1 construct: made in house; host or cells: Hi-Five insect cells infected with recombinant baculoviruses (gift from Louise Chow); nuclear extracts
T1 sequence (P04014 whole entry): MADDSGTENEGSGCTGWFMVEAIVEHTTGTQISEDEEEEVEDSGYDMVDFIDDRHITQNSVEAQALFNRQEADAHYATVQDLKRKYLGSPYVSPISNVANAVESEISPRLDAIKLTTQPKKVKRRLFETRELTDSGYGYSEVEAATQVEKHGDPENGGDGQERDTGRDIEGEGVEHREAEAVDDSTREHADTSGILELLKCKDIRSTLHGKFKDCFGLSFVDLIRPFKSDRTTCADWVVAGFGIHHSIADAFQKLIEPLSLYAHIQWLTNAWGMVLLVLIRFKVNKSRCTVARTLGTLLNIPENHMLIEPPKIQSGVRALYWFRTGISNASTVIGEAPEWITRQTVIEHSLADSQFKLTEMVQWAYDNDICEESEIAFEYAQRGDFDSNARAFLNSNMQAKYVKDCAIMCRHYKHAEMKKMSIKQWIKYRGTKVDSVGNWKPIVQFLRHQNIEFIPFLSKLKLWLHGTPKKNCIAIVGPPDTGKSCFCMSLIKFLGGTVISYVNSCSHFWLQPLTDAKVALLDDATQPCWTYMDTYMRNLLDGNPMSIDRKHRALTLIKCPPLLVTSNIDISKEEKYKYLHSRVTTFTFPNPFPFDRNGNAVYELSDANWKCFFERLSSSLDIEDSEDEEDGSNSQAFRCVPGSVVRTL
Experimental: (§2) In vitro HPV E1-E2 binding assay. 300-500 ng protein from HPV16 or HPV11 EE-E1 expressing recombinant baculovirus infected cell nuclear extracts and 80-120 ng from HPV E2 baculovirus infected cell nuclear extracts were incubated in 500 μl NET-gel buffer (50 mM Tris-HCl pH7.5, 150 mM NaCl, 0.1% NP-40, 1 mM EDTA, 0.25% gelatin) at 4° C. for one hour. 1-2 μg anti-EE monoclonal antibody was added and incubated with shaking at 4° C. for one hour. Immune complexes were precipitated with protein-G agarose beads and washed twice for 30 minutes with ice cold NET-gel buffer. Precipitated proteins were detected by Western blot using appropriate primary antibodies and anti-rabbit IgG HRP or anti-mouse IgG HRP (Amersham). Membranes were blocked for one hour in TNET (10 mM Tris 7.5, 2.5 mM EDTA, 50 mM NaCl, 0.1% Tween-20) containing 4% (w/v) dry milk. Washes and antibody reactions were carried out in TNET, and proteins were visualized by chemiluminescence (Reneaissance ECL, NEN) and autoradiography. Bands were quantitated using the NIH image program.
(§3) Very little is known about the physical properties of domains within the papillomavirus E1 and E2 proteins that are involved in intermolecular recognition and association. […] The effect of the E2N-WP15 peptide on these interactions was also assessed. […]

[2] = tested on: HPV16 E2/HPV11 E1 dependent replication of the HPV11 origin; assay: In vitro replication of the HPV11 origin with HPV11 E1 and HPV16 E2; assay type: biochemical
Experimental: as §1
The ability of the E2N-WP15 peptide to inhibit HPV11 E1 mediated replication in vitro was also tested. As shown in FIG. 7B (lanes 1-9), HPV11 E1 could cooperate with HPV16 E2 in supporting dose responsive in vitro replication of the HPV11 ori. […]

[3] = molecular target: T2, interaction between HPV11 E1 and HPV16 E2 (Human papillomavirus 11, UniProt P04014); assay: In vitro HPV E1-E2 binding assay, HPV11 E1 and HPV16 E2
T2 construct: made in house; host or cells: Hi-Five insect cells infected with recombinant baculovirus (HPV-11 EE-E1 virus a gift from Louise Chow); nuclear extracts
T2 sequence (P04014 whole entry): as above
Experimental: as §2, §3

[4] = molecular target: T3, interaction between HPV16 E1 and E2 (Human papillomavirus type 16, UniProt P03114); assay: In vitro HPV E1-E2 binding assay (co-immunoprecipitation / Western blot), HPV16 E1 and HPV16 E2
T3 construct: made in house; host or cells: Hi-Five insect cells infected with recombinant baculovirus (pVL1392); nuclear extracts
Experimental: as §2
Therefore, we reasoned that a peptide encompassing this domain of HPV16 E2 might inhibit interaction between HPV16 E1 and E2, thereby inhibiting HPV16 DNA replication (FIG. 5). In order to test this possibility, HPV16 E2 and epitope tagged full length HPV16 E1 (EE16-E1) proteins were expressed separately using baculovirus vectors. EE-E1 and associated E2 proteins were immunoprecipitated using an anti-EE epitope monoclonal antibody. Precipitated E2 was detected by Western blot using polyclonal antiserum raised to the DNA binding domain of HPV16 E2 (35). As shown in lane 2 of FIG. 6A, E2 co-immunoprecipitated with EE16-E1, but was not precipitated by the EE epitope antibody in the absence of EE16-E1 (lane 1). Peptides encompassing HPV16 E2 amino acids 29-51 (E2N-WP23) or residues 33-47 (E2N-WP15) of HPV16 E2 were then tested for inhibition of E1-E2 interaction. These peptide sequences were derived from the sequence of HPV16 E2, and were based on an alignment of amino terminal residues that are conserved among the papillomavirus E2 proteins (FIG. 5). […] Both the HPV16 E2 protein itself and the E2 derived peptides act specifically in these assays, since the E39A replication defective HPV16 E2 mutant bound only slightly to EE16-E1 (lanes 14). […] These peptides are named E2N-MP23 and E2N-MP15, respectively (see FIG. 5). […] We have previously shown that a domain spanning amino acids 421-647 of the HPV16 E1 carboxy terminus is necessary and sufficient for E2 interaction (45).

[5] = molecular target: T4, epitope tagged full length HPV16 E1 (EE16-E1) (human papillomavirus type 16, UniProt P03114 1-649); assay: co-immunoprecipitation with anti-EE antibody (data not shown); pair read as HPV16 E1 with HPV11 E2
T4 construct: range 1-649; also called EE-E1; HPV16 EE-E1
T4 sequence: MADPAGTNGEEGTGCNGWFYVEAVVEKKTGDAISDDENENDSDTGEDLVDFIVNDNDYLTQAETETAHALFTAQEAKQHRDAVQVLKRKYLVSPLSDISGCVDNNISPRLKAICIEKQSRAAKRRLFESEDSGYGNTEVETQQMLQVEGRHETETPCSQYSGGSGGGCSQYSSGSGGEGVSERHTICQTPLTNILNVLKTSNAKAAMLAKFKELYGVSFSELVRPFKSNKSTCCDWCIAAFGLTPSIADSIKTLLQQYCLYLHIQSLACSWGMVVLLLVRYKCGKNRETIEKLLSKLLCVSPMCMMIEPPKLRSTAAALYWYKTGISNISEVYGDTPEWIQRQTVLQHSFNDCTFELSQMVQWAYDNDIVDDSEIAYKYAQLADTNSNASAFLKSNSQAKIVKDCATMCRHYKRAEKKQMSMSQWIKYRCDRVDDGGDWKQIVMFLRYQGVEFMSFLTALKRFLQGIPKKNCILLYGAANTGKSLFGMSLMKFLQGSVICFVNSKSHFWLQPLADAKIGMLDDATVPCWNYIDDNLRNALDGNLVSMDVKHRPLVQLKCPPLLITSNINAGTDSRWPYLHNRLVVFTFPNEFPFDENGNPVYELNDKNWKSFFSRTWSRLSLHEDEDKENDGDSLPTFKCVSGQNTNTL

## WKHMRLECAIYYKAR [E2N-WP15]
[1]
  inhibition of in vitro HPV16 DNA replication: could effectively inhibit in vitro replication
HPV11 E1/E2 interaction
  inhibition of HPV11 E1/E2 interaction: effectively inhibited
[2]
  inhibition of HPV16 E2/HPV11 E1 dependent replication of the HPV11 origin: approximately the same effectiveness as its inhibition of HPV16 E1/E2 mediated in vitro replication
[3]
  inhibition of interaction between HPV11 E1 and HPV16 E2: effectively inhibited
[4]; 50 μM final concentration, added 5 minutes after start of binding reaction, terminated at 60 minutes
  effect on E1-E2 interaction of peptide added at 5 minutes: significant inhibition of subsequent E1-E2 interaction
[4]; 50 μM final concentration, added at or after 10 minutes
  effect on E1-E2 interaction of peptide added at or after 10 minutes: only a minimal effect on the stability of this E1-E2 interaction
[4]; increasing peptide concentrations, FIG. 6A
  inhibition of HPV16 E1-E2 interaction: comparable inhibition of E1-E2 interaction
[4]; inhibition plotted as a function of substrate concentration (data not shown)
  mode of inhibition of E1-E2 interaction: competitive inhibition

B1: HPV11 E2 (other)
chain: MEAIAKRLDACQDQLLELYEENSIDIHKHIMHWKCIRLESVLLHKAKQMGLSHIGLQVVPPLTVSETKGHNAIEMQMHLESLAKTQYGVEPWTLQDTSYEMWLTPPKRCFKKQGNTVEVKFDGCEDNVMEYVVWTHIYLQDNDSWVKVTSSVDAKGIYYTCGQFKTYYVNFNKEAQKYGSTNHWEVCYGSTVICSPASVSSTVREVSIAEPTTYTPAQTTAPTVSACTTEDGVSAPPRKRARGPSTNNTLCVANIRSVDSTINNIVTDNYNKHQRRNNCHSAATPIVQLQGDSNCLKCFRYRLNDKYKHLFELASSTWHWASPEAPHKNAIVTLTYSSEEQRQQFLNSVKIPPTIRHKVGFMSLHLL
[5]
  binding result: no binding
